Two molecules from paper PMC12217481, “Structure and mechanism of taniborbactam inhibition of the cefepime-hydrolyzing, partial R2-loop deletion Pseudomonas-derived cephalosporinase variant PDC-88” (Antimicrobial Agents and Chemotherapy, 2025) can be followed below.

Experiment [1] deals with E. coli DH10B/pTU629 (PDC-92). The experiment can be described thus: Broth microdilution MIC, isogenic E. coli expressing PDC-92. Particulars: Escherichia coli. The experiment is classed as cell-based. As for the experimental part: (§1) Genetic constructs used for minimum inhibitory concentration (MIC) testing were designed by Venatorx Pharmaceuticals and codon-optimized for use in E. coli and synthesized by Twist Bioscience as described previously ([9]). […] DH10B cells expressing an empty pET24a(+) vector (Novagen) were also grown, and the plasmid purified. Both pCR4-TOPO-PDC-88 and empty pET24a(+) were cut with BamHI and NdeI, the digests run on low-melting point agarose gels, and the bands of interest excised and ligated to yield a PDC-88 expressing pET24a(+) construct with the His tag removed. The PDC-3 expression construct was created in a similar manner but starting with a previously described pBC SK(−) vector ([42]). The final plasmids were grown in E. coli DH10B cells and purified.
(§2) Modal broth microdilution MICs (or median broth microdilution MICs where appropriate) were determined in accordance with Clinical and Laboratory Standards Institute (CLSI) M07 guidelines ([43]). Isogenic E. coli DH10B cells expressing the abovementioned plasmid-encoded PDC constructs were used. […] CLSI quality control strains Escherichia coli NCTC 13353, E. coli ATCC 35218, and Klebsiella pneumoniae ATCC 700603 were used during testing ([24]).
(In general: In broth dilution the organism is exposed to a series of concentrations in liquid medium.)

In experiment [2] the test system is K. pneumoniae ATCC 700603. Briefly: Broth microdilution MIC, CLSI quality control strain. The experiment is classed as cell-based. The conditions noted are these: Klebsiella pneumoniae. As for the experimental part: as §2
For experiment [3], the system named is E. coli DH10B/pTU627 (PDC-90). Briefly: Broth microdilution MIC, isogenic E. coli expressing PDC-90. It is filed as cell-based. The conditions noted are these: Escherichia coli. The procedure:
as §1, §2

For experiment [4], the system named is E. coli DH10B/pTU501 (vector). The experiment can be described thus: Broth microdilution MIC, isogenic E. coli empty vector control. Particulars: Escherichia coli. The experiment is classed as cell-based. The procedure:
as §1, §2

The target of experiment [5] is T1, PDC-3 (Pseudomonas aeruginosa, UniProt P24735, T105A).
T1 construct: The PDC-3 expression construct was created in a similar manner but starting with a previously described pBC SK(−) vector; made in house; host or cells: E. coli BL21-CodonPlus (DE3)-RP, pET24a(+)
Briefly: Timed ESI-MS of acyl-enzyme formation, PDC-3. It is filed as biochemical. The conditions noted are these: timed ESI-MS, 1 to 30 min (ATM to 60 min). The procedure: (§3) Timed ESI-MS experiments allow tracking of the reaction over time and determination of product modification, enabling the elucidation of mechanistic detail. Time courses were collected for both PDC-3 and PDC-88 with FEP (Fig. 4), CAZ (Fig. S1), TOL (Fig. S2), and ATM (Fig. S3). Substrate modification (here, loss of the R2 group) was determined based on differences between masses of apo and acyl-enzyme peaks (Fig. S4). […] Based on the differences in mass between the apo enzyme peaks, the acyl-enzyme peaks, and the molecular masses of each substrate, the mass of the adducts was determined and used to predict any portion of the substrate molecule that might be lost during the reaction (Fig. S4). As expected ([26][–][28]), all three cephalosporin antibiotics (FEP, CAZ, and TOL) lost their R2 groups during the reaction, while ATM (the sole monobactam) maintained its initial mass.
(§4) Five micrograms of PDC-3 or PDC-88 was incubated at the indicated molar ratio (1:2 to 1:100 PDC:β-lactam) in a total volume of 20 µL in 1× PBS at pH 7.4 at room temperature for the duration of the indicated time points. Reactions were quenched with the addition of 10 µL acetonitrile and added to 1 mL of 0.1% formic acid in water.
(§5) Data were collected using a Waters Synapt G2-Si quadrupole time-of-flight (Q-TOF) mass spectrometer and Waters Acquity UPLC BEH C18 1.7 µm column (2.1 by 100 mm). MassLynx V4.1 was used to deconvolute protein peaks. The tune settings for each sample were as follows: capillary voltage of 3.5 kV, sampling cone voltage of 35 V, source offset of 35 V, source temperature of 100°C, desolvation temperature of 500°C, cone gas flow rate of 100 L/h, desolvation gas flow rate of 800 L/h, and nebulizer bar at 6.0. Mobile phase A was 0.1% formic acid in water. Mobile phase B was 0.1% formic acid in acetonitrile. The mass accuracy of this system is ±5 Da.

Experiment [6] deals with E. coli DH10B/pTU628 (PDC-91). Briefly: Broth microdilution MIC, isogenic E. coli expressing PDC-91. It is filed as cell-based. The conditions noted are these: Escherichia coli. The procedure:
as §1, §2

Experiment [7] has as its system E. coli DH10B/pTU606 (PDC-1). Briefly: Broth microdilution MIC, isogenic E. coli expressing PDC-1. Particulars: Escherichia coli. The experiment is classed as cell-based. The procedure: as §1, §2
Experiment [8] deals with PDC-88. Briefly: Spectrophotometric β-lactam hydrolysis (progress curves, steady-state kinetics) by PDC-88. Particulars: over 900 s. The experiment is classed as biochemical, Pseudomonas aeruginosa. As for the experimental part: In order to determine the impact of the PDC-88 variant on hydrolysis, we determined hydrolysis progress curves for PDC-3, PDC-88, and a strongly hydrolyzing comparator (NDM-1 or PER-2) for cefepime (FEP, Fig. 3A), ceftazidime (CAZ, Fig. 3B), ceftolozane (TOL, Fig. 3C), and aztreonam (ATM, Fig. 3D).
β-Lactamase kinetic and inhibitor constants were determined using an Agilent 8453 UV-Visible Spectrophotometer to record progress curves and determine initial rates and other kinetic parameters as appropriate. Reactions were carried out in 1× phosphate-buffered saline (PBS) (pH 7.4) at room temperature in a 0.2 cm path-length quartz cuvette (Hellma Analytics). Reads were taken every 10 s to minimize UV-mediated background hydrolysis.
The extinction coefficients used were: nitrocefin, Δε482 = 17,400 M^−1 cm^−1, and cefepime, Δε260 = −10,000 M^−1 cm^−1.
The kinetic constants KM and Vmax were determined using a nonlinear least-squares regression of the data to the Henri-Michaelis-Menten equation (equation 1) in Origin Version 2020b (OriginLab, Northampton, MA), where v is the velocity of the reaction; Vmax is the theoretical maximum velocity; KM is the Michaelis constant; and [S] is the substrate concentration: […]

Experiment [9] deals with E. coli DH10B/pTU609 (PDC-3). The experiment can be described thus: Broth microdilution MIC, isogenic E. coli expressing PDC-3. It is filed as cell-based. The conditions noted are these: Escherichia coli. The procedure:
as §1, §2

Experiment [10] has as its system E. coli DH10B/pTU626 (PDC-89). Briefly: Broth microdilution MIC, isogenic E. coli expressing PDC-89. It is filed as cell-based. The conditions noted are these: Escherichia coli. The procedure:
as §1, §2

Experiment [11] concerns the target T2, PDC-88 (Pseudomonas aeruginosa, UniProt P24735, DEL316-317/G27D/G391A/T105A/V205L/V356I).
T2 construct: NdeI 5′-[…]-3ʹ and BamHI 5ʹ-[…]-3ʹ; His tag removed) (N); made in house; host or cells: E. coli BL21-CodonPlus (DE3)-RP, pET24a(+)
The experiment can be described thus: Timed ESI-MS of acyl-enzyme formation, PDC-88. The experiment is classed as biochemical. Particulars: timed ESI-MS, 1 to 30 min (ATM to 60 min). The procedure: as §3, §4, §5

Experiment [12] concerns E. coli DH10B/pTU625 (PDC-88). The experiment can be described thus: Broth microdilution MIC, isogenic E. coli expressing PDC-88. It is filed as cell-based, Escherichia coli. The conditions noted are these: Escherichia coli. As for the experimental part: as §1, §2
Experiment [13] concerns E. coli ATCC 35218. The experiment can be described thus: Broth microdilution MIC, CLSI quality control strain. It is filed as cell-based. The conditions noted are these: Escherichia coli, ATCC35218, read-out: MIC TOL TZB. As for the experimental part:
as §2

Values after ≈ are worked out from the molar mass of the structure shown. Where two headings read alike, the source gives them in different places.

For orientation: MIC means the smallest concentration in the dilution series that meets the test's criterion for growth inhibition. Turning to `CC(C)(O/N=C(\C(=O)N[C@@H]1C(=O)N2C(C(=O)[O-])=C(C[n+]3ccccc3)CS[C@H]12)c1csc(N)n1)C(=O)O` [CAZ, ceftazidime], the MIC in [1] (read-out: MIC CAZ AVI) was 1 µg/mL (≈ 1.83 µM); in experiment [1] (E. coli DH10B/pTU629 (PDC-92), read-out: MIC CAZ Alone) it was above 128 µg/mL; in [2] (ATCC700603, read-out: MIC CAZ AVI), 1 µg/mL (≈ 1.83 µM); in experiment [2] (ATCC700603, read-out: MIC CAZ Alone), 32 µg/mL (≈ 58.5 µM); in experiment [3] (read-out: MIC CAZ AVI), 2 µg/mL (≈ 3.66 µM); in experiment [3] (E. coli DH10B/pTU627 (PDC-90), read-out: MIC CAZ Alone) it was above 128 µg/mL. Also, the MIC in experiment [4] (read-out: MIC CAZ AVI) turned out to be 0.5 µg/mL (≈ 0.915 µM); in experiment [4] (read-out: MIC CAZ Alone), 0.5 µg/mL (≈ 0.915 µM); in experiment [6] (read-out: MIC CAZ AVI), 1 µg/mL (≈ 1.83 µM); in experiment [6] (E. coli DH10B/pTU628 (PDC-91), read-out: MIC CAZ Alone), 128 µg/mL (≈ 234 µM); in [7] (read-out: MIC CAZ AVI), 1 µg/mL (≈ 1.83 µM); in experiment [7] (E. coli DH10B/pTU606 (PDC-1), read-out: MIC CAZ Alone), 64 µg/mL (≈ 117 µM). For the same molecule, the MIC in [9] (read-out: MIC CAZ AVI) turned out to be 1 µg/mL (≈ 1.83 µM); in experiment [9] (E. coli DH10B/pTU609 (PDC-3), read-out: MIC CAZ Alone) it was 64 µg/mL (≈ 117 µM); in [10] (read-out: MIC CAZ AVI), 1 µg/mL (≈ 1.83 µM); in experiment [10] (E. coli DH10B/pTU626 (PDC-89), read-out: MIC CAZ Alone), 128 µg/mL (≈ 234 µM); in experiment [12] (read-out: MIC CAZ AVI) it was 1 µg/mL (≈ 1.83 µM); in experiment [12] (E. coli DH10B/pTU625 (PDC-88), read-out: MIC CAZ Alone) it was 128 µg/mL (≈ 234 µM). Moreover, the “acyl-enzyme complex formation and deacylation” value in [5] and in [11] was “formed acyl-enzyme complexes with CAZ that deacylated slowly” in each case. For the same molecule, in experiment [8], the “difference between hydrolysis progress curves of PDC-3 and PDC-88” value is recorded as “no appreciable difference”.

With `Cn1c(N)c(NC(=O)NCCN)c[n+]1CC1=C(C(=O)O)N2C(=O)[C@@H](NC(=O)/C(=N\OC(C)(C)C(=O)[O-])c3nsc(N)n3)[C@H]2SC1` [TOL, ceftolozane], the MIC in [1] (read-out: MIC TOL TZB) came to 8 µg/mL (≈ 12 µM); in experiment [1] (E. coli DH10B/pTU629 (PDC-92), read-out: MIC TOL Alone), 16 µg/mL (≈ 24 µM); in experiment [13], 0.25 µg/mL (≈ 0.375 µM); in experiment [3] (read-out: MIC TOL TZB), 16 µg/mL (≈ 24 µM); in [3] (E. coli DH10B/pTU627 (PDC-90), read-out: MIC TOL Alone) it was 16 µg/mL (≈ 24 µM); in [4] (read-out: MIC TOL Alone), 0.5 µg/mL (≈ 0.75 µM). The MIC in experiment [4] (read-out: MIC TOL TZB) was 0.5 µg/mL (≈ 0.75 µM); in experiment [6] (read-out: MIC TOL TZB) it was 16 µg/mL (≈ 24 µM); in experiment [6] (E. coli DH10B/pTU628 (PDC-91), read-out: MIC TOL Alone), 16 µg/mL (≈ 24 µM); in [7] (read-out: MIC TOL TZB), 4 µg/mL (≈ 6 µM); in experiment [7] (E. coli DH10B/pTU606 (PDC-1), read-out: MIC TOL Alone), 4 µg/mL (≈ 6 µM); in experiment [9] (read-out: MIC TOL TZB), 4 µg/mL (≈ 6 µM). Besides, the MIC in [9] (E. coli DH10B/pTU609 (PDC-3), read-out: MIC TOL Alone) was 4 µg/mL (≈ 6 µM); in [10] (read-out: MIC TOL TZB), 8 µg/mL (≈ 12 µM); in [10] (E. coli DH10B/pTU626 (PDC-89), read-out: MIC TOL Alone), 16 µg/mL (≈ 24 µM); in experiment [12] (read-out: MIC TOL TZB), 8 µg/mL (≈ 12 µM); in experiment [12] (E. coli DH10B/pTU625 (PDC-88), read-out: MIC TOL Alone) it was 16 µg/mL (≈ 24 µM). Also, the “acyl-enzyme complex formation and deacylation” value in [5] is on record as “did not form a detectable acyl-enzyme complex”; in experiment [11] it was “formed an acyl-enzyme complex that deacylated at a moderate rate”. The “difference between hydrolysis progress curves of PDC-3 and PDC-88” value in experiment [8] was “no appreciable difference”.
